From patent publication US12077503B2, “Substituted cyclic amides and their use as herbicides” (FMC CORPORATION, priority 2015, dated 2024)

Experiments:
Assay type in all cases: in vivo
[1] = system: sedge, umbrella (small-flower umbrella sedge, Cyperus difformis); assay: Test B flooded paddy test; conditions: Cyperus difformis, 250 g ai/ha, Flood; 0 to 100 scale where 0 is no effect and 100 is complete control; read-out: Sedge, Umbrella plant response rating
Method in brief: (§1)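 Compound goes directly into floodwater once pots are flooded 3 cm above soil, targeting plants at two leaves; the water depth is then held for the test duration. Plants sit 13–15 d in a greenhouse and are rated visually, 100 denoting complete control.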

[2] = system: ducksalad (Heteranthera limosa); assay: Test B flooded paddy test; conditions: Heteranthera limosa, 250 g ai/ha, Flood; 0 to 100 scale where 0 is no effect and 100 is complete control; read-out: Ducksalad plant response rating
Method in brief: as §1

rice (Oryra sativa) = assay: Test B flooded paddy test; conditions: Oryza sativa, 250 g ai/ha, Flood; 0 to 100 scale where 0 is no effect and 100 is complete control; read-out: Rice plant response rating
Method in brief: as §1

[3] = system: barnyardgrass (Echinochloa crus-galli); assay: Test B flooded paddy test; conditions: Echinochloa crus-galli, 250 g ai/ha, Flood; 0 to 100 scale where 0 is no effect and 100 is complete control; read-out: Barnyardgrass plant response rating
Method in brief: as §1

Kochia (Kochia scoparia) [4] = assay: Test A preemergence; conditions: Bassia scoparia, pre-emergence, 240 h, 0 to 100 scale where 0 is no effect and 100 is complete control, read-out: Kochia plant response rating
Method in brief: (§2)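 Treatment is preemergence as a directed soil spray after planting, or postemergence at the one- to two-leaf stage, with test chemical in a non-phytotoxic solvent mixture plus surfactant. Plants stay in the greenhouse about 10 d before visual injury scoring on a 0 to 100 scale versus untreated controls.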

[5] = system: pigweed (Amaranthus retroflexus); assay: Test A preemergence; conditions: Amaranthus retroflexus, pre-emergence, 240 h, 0 to 100 scale where 0 is no effect and 100 is complete control, read-out: Pigweed plant response rating
[6] = system: ryegrass, Italian (Italian ryegrass, Lolium multiflorum); assay: Test A preemergence; conditions: Lolium multiflorum, pre-emergence, 240 h, 0 to 100 scale where 0 is no effect and 100 is complete control, read-out: Ryegrass, Italian plant response rating
Method in brief: as §2

[7] = system: barnyardgrass (Echinochloa crus-galli); assay: Test A preemergence; conditions: Echinochloa crus-galli, pre-emergence, 240 h, 0 to 100 scale where 0 is no effect and 100 is complete control, read-out: Barnyardgrass plant response rating
Method in brief: as §2

[8] = system: giant foxtail (Setaria faberii); assay: Test A preemergence; conditions: Setaria faberi, pre-emergence, 240 h, 0 to 100 scale where 0 is no effect and 100 is complete control, read-out: Foxtail, Giant plant response rating
Method in brief: as §2

[9] = system: ragweed (common ragweed, Ambrosia elatior); assay: Test A preemergence; conditions: Ambrosia artemisiifolia, pre-emergence, 240 h, 0 to 100 scale where 0 is no effect and 100 is complete control, read-out: Ragweed plant response rating
Method in brief: as §2

Kochia (Kochia scoparia) [10] = assay: Test A postemergence; conditions: Bassia scoparia, post-emergence, 240 h
Method in brief: as §2

[11] = system: pigweed (Amaranthus retroflexus); assay: Test A postemergence; conditions: Amaranthus retroflexus, post-emergence, 240 h, 125 g ai/ha, postemergence, visual injury vs untreated controls after approx. 10 d; 0 = no effect, 100 = complete control; read-out: Pigweed plant response rating (0 to 100 scale)
Method in brief: as §2

[12] = system: blackgrass (Alopecurus myosuroides); assay: Test A postemergence; conditions: Alopecurus myosuroides, post-emergence, 240 h
Method in brief: as §2

[13] = system: ryegrass, Italian (Italian ryegrass, Lolium multiflorum); assay: Test A postemergence; conditions: Lolium multiflorum, post-emergence, 240 h, 125 g ai/ha, postemergence, visual injury vs untreated controls after approx. 10 d; 0 = no effect, 100 = complete control; read-out: Ryegrass, Italian plant response rating (0 to 100 scale)
Method in brief: as §2

corn (Zea mays) = assay: Test A postemergence; conditions: Zea mays, post-emergence, 240 h
Method in brief: as §2

[14] = system: barnyardgrass (Echinochloa crus-galli); assay: Test A postemergence; conditions: Echinochloa crus-galli, post-emergence, 240 h
Method in brief: as §2

[15] = system: giant foxtail (Setaria faberii); assay: Test A postemergence; conditions: Setaria faberi, post-emergence, 240 h
Method in brief: as §2

[16] = system: wheat (Triticum aestivum); assay: Test A postemergence; conditions: Triticum aestivum, post-emergence, 240 h, 125 g ai/ha, postemergence, visual injury vs untreated controls after approx. 10 d; 0 = no effect, 100 = complete control; read-out: Wheat plant response rating (0 to 100 scale)
Method in brief: as §2

[17] = system: ragweed (common ragweed, Ambrosia elatior); assay: Test A postemergence; conditions: Ambrosia artemisiifolia, post-emergence, 240 h, 125 g ai/ha, postemergence, visual injury vs untreated controls after approx. 10 d; 0 = no effect, 100 = complete control; read-out: Ragweed plant response rating (0 to 100 scale)
Method in brief: as §2

[18] = system: Galium (catchweed bedstraw, Galium aparine); assay: Test A postemergence; conditions: Galium, post-emergence, 240 h
Method in brief: as §2

[19] = 125 g ai/ha, preemergence, visual injury rating, approximately 10 d

COc1ccc(C(F)(F)F)cc1[C@H]1CN(C)C(=O)[C@@H]1C(=O)Nc1ccccc1SC [Compound 1185]
pest or weed control at 250 g/ha [1]: 0% | pest or weed control at 250 g/ha [2]: 50% | pest or weed control at 250 g/ha (rice (Oryra sativa)): 0% | pest or weed control at 250 g/ha [3]: 60% | pest or weed control at 31 g/ha (Kochia (Kochia scoparia) [4]; 31 g ai/ha, Preemergence): 0% | pest or weed control at 125 g/ha (Kochia (Kochia scoparia) [4]; [19]): 0% | pest or weed control at 31 g/ha ([5]; 31 g ai/ha, Preemergence): 0% | pest or weed control at 125 g/ha [5, 19]: 0% | pest or weed control at 31 g/ha ([6]; 31 g ai/ha, Preemergence): 0% | pest or weed control at 125 g/ha [6, 19]: 60% | pest or weed control at 31 g/ha ([7]; 31 g ai/ha, Preemergence): 70% | pest or weed control at 125 g/ha [7, 19]: 100% | pest or weed control at 31 g/ha ([8]; 31 g ai/ha, Preemergence): 50% | pest or weed control at 125 g/ha [8, 19]: 90% | pest or weed control at 31 g/ha ([9]; 31 g ai/ha, Preemergence): 0% | pest or weed control at 125 g/ha [9, 19]: 0% | pest or weed control at 125 g/ha (Kochia (Kochia scoparia) [10]; 125 g ai/ha, postemergence, visual injury vs untreated controls after approx. 10 d, 0 = no effect, 100 = complete control, read-out: Kochia plant response rating (0 to 100 scale)): 0% | pest or weed control at 31 g/ha (Kochia (Kochia scoparia) [10]; Postemergence, 31 g ai/ha, visual injury after approx. 10 d, 0 to 100 scale, 0 no effect, 100 complete control, read-out: Plant response rating, Kochia): 0% | pest or weed control at 125 g/ha [11]: 0% | pest or weed control at 125 g/ha ([12]; 125 g ai/ha, postemergence, visual injury vs untreated controls after approx. 10 d, 0 = no effect, 100 = complete control, read-out: Blackgrass plant response rating (0 to 100 scale)): 50% | pest or weed control at 31 g/ha ([12]; Postemergence, 31 g ai/ha, visual injury after approx. 10 d, 0 to 100 scale, 0 no effect, 100 complete control, read-out: Plant response rating, Blackgrass): 0% | pest or weed control at 125 g/ha [13]: 20% | plant injury at 125 g/ha (corn (Zea mays); 125 g ai/ha, postemergence, visual injury vs untreated controls after approx. 10 d, 0 = no effect, 100 = complete control, read-out: Corn plant response rating (0 to 100 scale)): 20% | Corn plant response rating (crop injury, 0 = no effect, 100 = complete kill) at 31 g/ha (corn (Zea mays); Postemergence, 31 g ai/ha, visual injury after approx. 10 d, 0 to 100 scale, 0 no effect, 100 complete control): 0% | pest or weed control at 125 g/ha ([14]; 125 g ai/ha, postemergence, visual injury vs untreated controls after approx. 10 d, 0 = no effect, 100 = complete control, read-out: Barnyardgrass plant response rating (0 to 100 scale)): 50% | pest or weed control at 31 g/ha ([14]; Postemergence, 31 g ai/ha, visual injury after approx. 10 d, 0 to 100 scale, 0 no effect, 100 complete control, read-out: Plant response rating, Barnyardgrass): 20% | pest or weed control at 125 g/ha ([15]; 125 g ai/ha, postemergence, visual injury vs untreated controls after approx. 10 d, 0 = no effect, 100 = complete control, read-out: Foxtail, Giant plant response rating (0 to 100 scale)): 60% | pest or weed control at 31 g/ha ([15]; Postemergence, 31 g ai/ha, visual injury after approx. 10 d, 0 to 100 scale, 0 no effect, 100 complete control, read-out: Plant response rating, Foxtail, Giant): 30% | plant injury at 125 g/ha [16]: 40% | pest or weed control at 125 g/ha [17]: 0% | pest or weed control at 125 g/ha ([18]; 125 g ai/ha, postemergence, visual injury vs untreated controls after approx. 10 d, 0 = no effect, 100 = complete control, read-out: Galium plant response rating (0 to 100 scale)): 0% | pest or weed control at 31 g/ha ([18]; Postemergence, 31 g ai/ha, visual injury after approx. 10 d, 0 to 100 scale, 0 no effect, 100 complete control, read-out: Plant response rating, Galium): 0%
